Earlier results in US20230076766A1, “METHOD FOR TREATMENT OF ROSACEA IN PATIENTS AGED 35-64 YEARS” (Sol-Gel Technologies Ltd., priority 2021, published 2023).

Tested on: rosacea lesions
Conditions: BPO as the sole active agent

**Q.** With `O=C(OOC(=O)c1ccccc1)c1ccccc1` [BPO, Benzoyl peroxide] as the compound, how does the “response of rosacea lesions” value read?
**A.** unresponsive
